Results from patent US20020013264A1, “Neoglycan anticancer agents and uses thereof” (priority 1999, published 2002).

Legend:
MDA-MB-231 cells = test: Apoptosis by Annexin V-FITC staining and PI exclusion, MDA-MB-231; assay type: cell-based, human; settings: discussion summary of Annexin V and TUNEL results
Method: (§1) ARP-1 cells and MDA-MB-231 cells were treated with media only, 32 μg/ml GAG chains and 32 μg/ml neoglycans. The ARP-1 cells were harvested following a 48 hour incubation period and the MDA-MB-231 cells were harvested after a 96 hour incubation period. The induction of apoptosis was determined by staining with fluorescein isothiocyanated-labeled Annexin V (Annexin V-FITC, CALTAG Laboratories, Burlingame, Calif.) following the manufacturer's instructions. Just prior to analysis, 0.5 mg/ml propidium iodide (PI, Sigma, St Louis, Mo.) in PBS, pH. 7.4 was added. Flow cytometry was performed with a Beckman Dickenson (Mountain View, Calif.) FACScan using Cellquest 1.2 software. Annexin V-FITC positive, PI negative cells were considered apoptotic.
(§2) Annexin-V binds to phosphatidylserine which is on the inner cytoplasmic membrane of healthy cells and on the outer cytoplasmic membrane of apoptotic cells .

[1] = tested on: multiple myeloma cell line; test: Viability of a multiple myeloma cell line treated with nPG, EDAC modified GAG chains or native GAG chains; assay type: cell-based; settings: data not shown
Text: Synthetic proteoglycans termed neoproteoglycans (nPG), were produced by EDAC conjugation of the GAG chains heparin or chondroitin sulfate and a protein scaffold. Treatment of a multiple myeloma cell line with either nPG preparation or controls produced by EDAC modification of GAG chains alone reduced cell viability (data not shown). […] Therefore, neoglycans (neoglycans) consisting of EDAC modified heparin (neoheparin) or chondroitin sulfate (neoCS, neoCS) were produced and evaluated for potential anticancer activities.

ARP-1 cells = test: Apoptosis by Annexin V-FITC staining and PI exclusion, ARP-1; assay type: cell-based, human; settings: discussion summary of Annexin V and TUNEL results
Method: as §1, §2

[2] = tested on: ARP-1 multiple myeloma cell line; test: MTT cell viability assay, ARP-1 cells; assay type: cell-based, human; settings: 500 μg/ml (FIG. 1 legend), 72 hours
Text: ARK, ARP-1, and CAG cells are B lymphoid cell lines established at the Arkansas Cancer Research Center from bone marrow aspirates of multiple myeloma patients (Ridley, Xiao et al. 1993). U266 is a multiple myeloma cell line that was obtained from the American Type Culture Collection (ATCC, Manassas, Va.). ARH-77 cells (ATCC, Manassas, Va.) were established from the peripheral blood of a patient with plasma cell leukemia (Burk, Drewinko et al. 1978). Peripheral blood mononuclear cells (PBMCs) were collected from healthy donors by Ficol-Hypaque separation of whole blood and were mitogen activated for 3 days with 2.5 μg/ml PHA (Sigma, St Louis, Mo.) prior to neoglycan treatment. The cell lines and peripheral blood mononuclear cells were grown in RPMI 1640 supplemented with 10% fetal bovine serum, 2 mM L-glutamine, 1 00 U/ml penicillin and 100 μg/ml streptomycin sulfate. […]
Cells were plated in the appropriate media on 96-well plates in a 100 μl total volume. […] Cell viability was determined based mitochondrial conversion of 3[4,5-Dimethylthiazol-2-yl]-2,5-diphenyltetrazolium bromide (MTT, Sigma, St Louis, Mo.) to formazan. […] The plates were gently agitated until the color reaction was uniform and the OD540 was determined using a microplate reader. […]

[3] = tested on: MDA-MB-231 breast cancer tumors; test: Treatment of established MDA-MB-231 tumors in nude mice; assay type: in vivo; settings: single 1.6 mg dose injected into the tumor followed by electroporation
Method: BALB/c nu/nu mice were anesthetized by intraperitoneal administration of a mixture of ketamine (42.8 mg/ml), xylazine (8.6 mg/ml), and acepromazine (1.4 mg/ml) at a dose of 1.8-2.0 ml/kg. Human breast cancer tumors were established following subcutaneous injection of 2×10^6 MDA-MB-231 cells in PBS. Two tumors were established on each mouse. Tumors were injected with a single 1.6 mg dose of chondroitin sulfate or chondroitin sulfate neoglycan in a 50 μl total volume. Immediately following injection, a caliper electrode was positioned on t wo sides of the tumor with contact on the skin. An electrical pulse was applied to the tumor through the electrodes with a BTS EC830 power supply (Genetronics, Inc., San Diego, Calif.). The tumors were measured with calipers and tumor volumes calculated according to the equation: V=(L×W2)×0.5. The results reflect two separate experiments in which one tumor was treated with chondroitin sulfate and the second tumor on the same animal was treated with neoCS. Both experiments included 7 tumors per treatment group.
Therefore, chondroitin sulfate neoglycan was used for evaluation of in vivo neoglycan activity. […] Two tumors per animal developed and were measured just prior to treatment. […] The size of each tumor was determined 48 hours later and at several subsequent time points.

Substance	induction of apoptosis in MDA-MB-231 cell line (FIG. 2) (MDA-MB-231 cells)	effect on multiple myeloma cell viability / growth [1]	induction of apoptosis in ARP-1 cell line (FIG. 2) (ARP-1 cells)	effect of native GAG chains on cell proliferation [2]	effect on established MDA-MB-231 tumors / tumor burden [3]
heparin	do not induce apoptosis	no growth reducing affect	do not induce apoptosis	slightly enhances cell proliferation	–
chondroitin sulfate	do not induce apoptosis	no growth reducing affect	do not induce apoptosis	no affect	does not reduce the tumor burden
